How the values were obtained:
[1] = biological target: Sodium-dependent dopamine transporter (Rattus norvegicus) (UniProt P23977); assay: Ability to inhibit binding of [3H]cocaine to Cocaine receptor in rat brain; type: tissue-based
[2] = biological target: Sodium-dependent dopamine transporter (Rattus norvegicus) (UniProt P23977); assay: Value is difference between the cocaine binding and DA uptake
[3] = biological target: T1, Sodium-dependent dopamine transporter (Rattus norvegicus, UniProt P23977); assay: Inhibition [3H]DA uptake in rat striatal synaptosomes.; type: functional, subcellular, Brain
T1 sequence (P23977 whole entry): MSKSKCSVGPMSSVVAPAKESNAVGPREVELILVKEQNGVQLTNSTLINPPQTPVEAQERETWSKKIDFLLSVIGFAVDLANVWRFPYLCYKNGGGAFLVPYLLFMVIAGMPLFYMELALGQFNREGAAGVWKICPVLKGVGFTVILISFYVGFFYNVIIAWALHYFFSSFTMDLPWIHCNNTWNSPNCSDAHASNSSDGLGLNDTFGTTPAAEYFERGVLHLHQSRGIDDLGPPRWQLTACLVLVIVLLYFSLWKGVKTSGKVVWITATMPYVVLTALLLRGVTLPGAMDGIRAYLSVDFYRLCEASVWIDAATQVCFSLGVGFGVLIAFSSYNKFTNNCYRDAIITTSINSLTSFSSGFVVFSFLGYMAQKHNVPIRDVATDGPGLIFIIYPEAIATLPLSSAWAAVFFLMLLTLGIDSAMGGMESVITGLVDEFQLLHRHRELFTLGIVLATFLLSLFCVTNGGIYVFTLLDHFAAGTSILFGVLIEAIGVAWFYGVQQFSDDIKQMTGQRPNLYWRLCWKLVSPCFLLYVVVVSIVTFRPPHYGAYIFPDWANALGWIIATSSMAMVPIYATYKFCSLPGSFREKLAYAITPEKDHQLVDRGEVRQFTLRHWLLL

[4] = biological target: Sodium-dependent dopamine transporter (Rattus norvegicus) (UniProt P23977); assay: Dopamine (DA) uptake; type: functional
[5] = biological target: T1, Sodium-dependent dopamine transporter; assay: Inhibition [3H]-cocaine binding to Cocaine receptor in rat striatal membranes.; type: cell membranes
[6] = biological target: Sodium-dependent dopamine transporter (Rattus norvegicus) (UniProt P23977); assay: Potency ratio for Cocaine receptor (IC50 cocaine /IC50 compound)

Chain of Sodium-dependent dopamine transporter (Rattus norvegicus) (P23977 whole entry): as above

Compound	Log potency ratio [1]	Log potency ratio [2]	IC50 [3] [nM]	Log potency ratio [4]	IC50 [5] [nM]	Log potency ratio [6]
COC(=O)[C@@H]1C2CC[C@H](C[C@H]1/C=C/c1ccccc1)N2C	0.48	0.13	5.88	1.55	2.1	1.68
COC(=O)[C@H]1C2CC[C@H](C[C@H]1c1ccc3ccccc3c1)N2C	1.66	-0.29	3.53	1.77	3.32	1.48
COC(=O)C1C(Cc2ccccc2)CC2CCC1N2C (centres undefined)			1020			
COC(=O)[C@@H]1C2CC[C@H](C[C@H]1CCc1ccccc1)N2C	-0.77	0.54	70.5	0.47	9.94	1.01
COC(=O)C1C(OC(=O)c2cccc3ccccc23)CC2CCC1N2C (centres undefined)	0.01	-0.11	1190	-0.76	742	-0.87
COC(=O)[C@@H]1C2CC[C@H](C[C@H]1OC(=O)c1ccc3ccccc3c1)N2C	0.07	0.08	813	-0.59	327	-0.51
COC(=O)C1C(CCCc2ccccc2)CC2CCC1N2C (centres undefined)	-1.84	0.58	2680	-1.11	344	-0.53
COC(=O)C1C(Cc2ccc3ccccc3c2)CC2CCC1N2C (centres undefined)			1350			
COC(=O)[C@H]1[C@@H](c2ccc(F)cc2)C[C@H]2CC[C@H]1N2C	-0.49	-0.35		0.94		0.59
COC(=O)C1C(c2ccc(N)cc2)CC2CCC1N2C (centres undefined)	2.58	-0.32		0.18		-0.14
COC(=O)C1C(c2ccc([N+](=O)[O-])cc2)CC2CCC1N2C (centres undefined)	1.48	-0.134				0.006
C=C(c1ccccc1)C1CC2CCC(C1C(=O)OC)N2C (centres undefined)	-0.83	-0.03	138	0.18	71.6	0.15
COC(=O)[C@@H]1C2CC[C@H](C[C@H]1c1ccc(-c3ccccc3)cc1)N2C	0.9	0.14	29.4	0.85	10.3	0.99
COC(=O)[C@@H]1C2CC[C@H](C[C@@H]1c1ccccc1)N2C		-0.13		0.66		0.53

Source: ChEMBL document CHEMBL1131492 (J Med Chem, 1998)
